Measured values from patent US20230295115A1, “SUBSTITUTED ISOQUINOLINYLMETHYL AMIDES, ANALOGUES THEREOF, AND METHODS USING SAME” (priority 2020, published 2023).

tested on: HBV rcDNA; assay: HepDE19 assay with bDNA quantitation of HBV rcDNA; format: cell-based, hepatitis B virus (HBV); conditions: HepDE19 cells, 7 day incubation, rcDNA measured by Quantigene 2.0 bDNA assay, top concentration 25 μM; read-out: DE-19bDNA EC50
Description: HepDE19 assay with bDNA quantitation of HBV rcDNA:
HepDE19 (50,000 cells/well) were plated in 96-well collagen-coated tissue-culture treated microtiter plates in DMEM/F12 medium supplemented with 10% fetal bovine serum, 1% penicillin-streptomycin and 1 μg/mL tetracycline and incubated in a humidified incubator at 37° C. and 5% CO2 overnight. Next day, the cells were switched to fresh medium without tetracycline and incubated for 4 hours at 37° C. and 5% CO2. […] The final DMSO concentration in the assay was 0.5%. The plates were incubated for 7 days in a humidified incubator at 37° C. and 5% CO2. Following a 7 day-incubation, the level of rcDNA present in the inhibitor-treated wells was measured using a Quantigene 2.0 bDNA assay kit (Affymetrix, Santa Clara, CA) with HBV specific custom probe set and manufacturers instructions. Concurrently, the effect of compounds on cell viability was assessed using replicate plates, plated at a density of 5,000 cells/well and incubated for 4 days, to determine the ATP content as a measure of cell viability using the cell-titer glo reagent (CTG; Promega Corporation, Madison, WI) as per manufacturer's instructions.

Compound	EC50 [µM]
CC(c1c[nH]c(=O)c2c(F)c(F)ccc12)N(C)C(=O)c1cc2c([nH]1)CCC2 (single isomer, unassigned) [Compound 57, N-(1-(7,8-Difluoro-1-oxo-1,2-dihydroisoquinolin-4-yl)ethyl)-N-methyl-1,4,5,6-tetrahydrocyclopenta[b]pyrrole-2-carboxamide]	12
CC(c1c[nH]c(=O)c2c(F)c(F)ccc12)N(C)C(=O)c1cc2c([nH]1)CCC2 (single isomer, unassigned) [Compound 58, N-(1-(7,8-Difluoro-1-oxo-1,2-dihydroisoquinolin-4-yl)ethyl)-N-methyl-1,4,5,6-tetrahydrocyclopenta[b]pyrrole-2-carboxamide]	1.8
CC(c1c[nH]c(=O)c2cc(F)c(F)cc12)N(C)C(=O)c1cc2c(Cl)cccn2c1 (single isomer, unassigned) [Compound 77, 8-Chloro-N-(1-(6,7-difluoro-1-oxo-1,2-dihydroisoquinolin-4-yl)ethyl)-N-methylindolizine-2-carboxamide]	2
CC(c1c[nH]c(=O)c2cc(F)c(F)cc12)N(C)C(=O)c1cc2c(Cl)cccn2c1 (single isomer, unassigned) [Compound 78, 8-Chloro-N-(1-(6,7-difluoro-1-oxo-1,2-dihydroisoquinolin-4-yl)ethyl)-N-methylindolizine-2-carboxamide]	0.01
CC(c1c[nH]c(=O)c2cc(F)c(F)cc12)N(C)C(=O)c1cc2c(F)cccn2c1 (single isomer, unassigned) [Compound 79, N-(1-(6,7-Difluoro-1-oxo-1,2-dihydroisoquinolin-4-yl)ethyl)-8-fluoro-N-methylindolizine-2-carboxamide]	3.3
CC(c1c[nH]c(=O)c2cc(F)c(F)cc12)N(C)C(=O)c1cc2c(F)cccn2c1 (single isomer, unassigned) [Compound 80, N-(1-(6,7-Difluoro-1-oxo-1,2-dihydroisoquinolin-4-yl)ethyl)-8-fluoro-N-methylindolizine-2-carboxamide]	0.02
CC(c1c[nH]c(=O)c2c(F)c(F)ccc12)N(C)C(=O)c1cc2c(F)cccn2c1 (single isomer, unassigned) [Compound 81, N-(1-(7,8-Difluoro-1-oxo-1,2-dihydroisoquinolin-4-yl)ethyl)-8-fluoro-N-methylindolizine-2-carboxamide]	2.1
CC(c1c[nH]c(=O)c2c(F)c(F)ccc12)N(C)C(=O)c1cc2c(F)cccn2c1 (single isomer, unassigned) [Compound 82, N-(1-(7,8-Difluoro-1-oxo-1,2-dihydroisoquinolin-4-yl)ethyl)-8-fluoro-N-methylindolizine-2-carboxamide]	0.07
CC(c1c[nH]c(=O)c2cc(F)c(F)cc12)N(C)C(=O)c1cc2c([nH]1)CCC(F)(F)C2 (single isomer, unassigned) [Compound 88, N-(1-(6,7-Difluoro-1-oxo-1,2-dihydroisoquinolin-4-yl)ethyl)-5,5-difluoro-N-methyl-4,5,6,7-tetrahydro-1H-indole-2-carboxamide]	0.03
CC(c1c[nH]c(=O)c2cc(F)c(F)cc12)N(C)C(=O)c1cc2c([nH]1)CCC(F)(F)C2 (single isomer, unassigned) [Compound 89, N-(1-(6,7-Difluoro-1-oxo-1,2-dihydroisoquinolin-4-yl)ethyl)-5,5-difluoro-N-methyl-4,5,6,7-tetrahydro-1H-indole-2-carboxamide]	1.8
CC(c1c[nH]c(=O)c2c(F)c(F)ccc12)N(C)C(=O)c1cc2c([nH]1)CCC(F)(F)C2 (single isomer, unassigned) [Compound 90, N-(1-(7,8-Difluoro-1-oxo-1,2-dihydroisoquinolin-4-yl)ethyl)-5,5-difluoro-N-methyl-4,5,6,7-tetrahydro-1H-indole-2-carboxamide]	0.37
CC(c1c[nH]c(=O)c2c(F)c(F)ccc12)N(C)C(=O)c1cc2c([nH]1)CCC(F)(F)C2 (single isomer, unassigned) [Compound 91, N-(1-(7,8-Difluoro-1-oxo-1,2-dihydroisoquinolin-4-yl)ethyl)-5,5-difluoro-N-methyl-4,5,6,7-tetrahydro-1H-indole-2-carboxamide]	7.3
CC(c1c[nH]c(=O)c2c(F)c(F)ccc12)N(C)C(=O)c1cc2c(Cl)cccn2c1 (single isomer, unassigned) [Compound 92, 8-Chloro-N-(1-(7,8-difluoro-1-oxo-1,2-dihydroisoquinolin-4-yl)ethyl)-N-methylindolizine-2-carboxamide]	2.7
CC(c1c[nH]c(=O)c2c(F)c(F)ccc12)N(C)C(=O)c1cc2c(Cl)cccn2c1 (single isomer, unassigned) [Compound 93, 8-Chloro-N-(1-(7,8-difluoro-1-oxo-1,2-dihydroisoquinolin-4-yl)ethyl)-N-methylindolizine-2-carboxamide]	0.04
CC(c1c[nH]c(=O)c2cc(F)c(F)cc12)N(CCCO)C(=O)c1[nH]c2ccccc2c1Cl (single isomer, unassigned) [Compound 94, 3-Chloro-N-(1-(6,7-difluoro-1-oxo-1,2-dihydroisoquinolin-4-yl)ethyl)-N-(3-hydroxypropyl)-1H-indole-2-carboxamide]	19
CC(c1c[nH]c(=O)c2cc(F)c(F)cc12)N(CCCO)C(=O)c1[nH]c2ccccc2c1Cl (single isomer, unassigned) [Compound 95, 3-Chloro-N-(1-(6,7-difluoro-1-oxo-1,2-dihydroisoquinolin-4-yl)ethyl)-N-(3-hydroxypropyl)-1H-indole-2-carboxamide]	0.4
CC(c1c[nH]c(=O)c2cc(F)c(F)cc12)N(C)C(=O)c1cc2cc(Cl)ccn2c1 (single isomer, unassigned) [Compound 96, 7-Chloro-N-(1-(6,7-difluoro-1-oxo-1,2-dihydroisoquinolin-4-yl)ethyl)-N-methylindolizine-2-carboxamide]	4.6
CC(c1c[nH]c(=O)c2cc(F)c(F)cc12)N(C)C(=O)c1cc2cc(Cl)ccn2c1 (single isomer, unassigned) [Compound 97, 7-Chloro-N-(1-(6,7-difluoro-1-oxo-1,2-dihydroisoquinolin-4-yl)ethyl)-N-methylindolizine-2-carboxamide]	0.09
CC(c1c[nH]c(=O)c2cc(F)c(F)cc12)N(C)C(=O)c1cc2ccc(F)cn2c1 (single isomer, unassigned) [Compound 102, N-(1-(6,7-Difluoro-1-oxo-1,2-dihydroisoquinolin-4-yl)ethyl)-6-fluoro-N-methylindolizine-2-carboxamide]	12
CC(c1c[nH]c(=O)c2cc(F)c(F)cc12)N(C)C(=O)c1cc2ccc(F)cn2c1 (single isomer, unassigned) [Compound 103, N-(1-(6,7-Difluoro-1-oxo-1,2-dihydroisoquinolin-4-yl)ethyl)-6-fluoro-N-methylindolizine-2-carboxamide]	0.03
CC(c1c[nH]c(=O)c2cc(F)c(F)cc12)N(C)C(=O)c1cc2cc(F)ccn2c1 (single isomer, unassigned) [Compound 108, N-(1-(6,7-Difluoro-1-oxo-1,2-dihydroisoquinolin-4-yl)ethyl)-7-fluoro-N-methylindolizine-2-carboxamide]	0.02

same assay, conditions: Hepatitis B virus, HepDE19, 168 h, HepDE19 cells, 7 day incubation, rcDNA measured by Quantigene 2.0 bDNA assay, top concentration 25 μM; read-out: DE-19bDNA EC50

Compound	EC50 [µM]
CC(c1c[nH]c(=O)c2cc(F)c(F)cc12)N(C)C(=O)c1cc2ccccn2c1 (single isomer, unassigned) [Compound 70, N-(1-(6,7-Difluoro-1-oxo-1,2-dihydroisoquinolin-4-yl)ethyl)-N-methylindolizine-2-carboxamide]	0.02

same assay, conditions: read-out: DE-19bDNA EC50; HepDE19 cells, 7 day incubation, rcDNA measured by Quantigene 2.0 bDNA assay, top concentration 25 μM

Compound	EC50 [µM]
CC(c1c[nH]c(=O)c2cc(F)c(F)cc12)N(C)C(=O)c1cc2ccccn2c1 (single isomer, unassigned) [Compound 69, N-(1-(6,7-Difluoro-1-oxo-1,2-dihydroisoquinolin-4-yl)ethyl)-N-methylindolizine-2-carboxamide]	5.7
CC(c1c[nH]c(=O)c2c(F)c(F)ccc12)N(C)C(=O)c1cc2ccccn2c1 (single isomer, unassigned) [Compound 71, N-(1-(7,8-Difluoro-1-oxo-1,2-dihydroisoquinolin-4-yl)ethyl)-N-methylindolizine-2-carboxamide]	6.5
CC(c1c[nH]c(=O)c2c(F)c(F)ccc12)N(C)C(=O)c1cc2ccccn2c1 (single isomer, unassigned) [Compound 72, N-(1-(7,8-Difluoro-1-oxo-1,2-dihydroisoquinolin-4-yl)ethyl)-N-methylindolizine-2-carboxamide]	0.14
CC(c1c[nH]c(=O)c2cc(F)c(F)cc12)N(CCCO)C(=O)Cc1cc2ccccc2[nH]1 (single isomer, unassigned) [Compound 83, N-(1-(6,7-Difluoro-1-oxo-1,2-dihydroisoquinolin-4-yl)ethyl)-N-(3-hydroxypropyl)-2-(1H-indol-2-yl)acetamide]	≥ 25
CC(c1c[nH]c(=O)c2cc(F)c(F)cc12)N(CCCO)C(=O)Cc1cc2ccccc2[nH]1 (single isomer, unassigned) [Compound 84, N-(1-(6,7-Difluoro-1-oxo-1,2-dihydroisoquinolin-4-yl)ethyl)-N-(3-hydroxypropyl)-2-(1H-indol-2-yl)acetamide]	0.42
